Key:
Assay type in all cases: in vivo
Alternaria solani = test: Test B: preventive spray on tomato seedlings, Alternaria solani (tomato early blight), visual disease rating; conditions: 100 = 100% disease control, 0 = no disease control relative to controls
Description: (§1) General protocol for preparing test suspensions for Tests A-H: the test compounds were first dissolved in acetone in an amount equal to 3% of the final volume and then suspended at the desired concentration (in ppm) in acetone and purified water (50/50 mix by volume) containing 250 ppm of the surfactant Trem® 014 (polyhydric alcohol esters). The resulting test suspensions were then used in Tests A-F. Spraying a 40 ppm test suspension to the point of run-off on the test plants was the equivalent of a rate of 160 g/ha. Unless otherwise indicated, the rating values indicate a 40 ppm test suspension was used. The test suspension was sprayed to the point of run-off on tomato seedlings. The following day the seedlings were inoculated with a spore suspension of Alternaria solani (the causal agent of tomato early blight) and incubated in a saturated atmosphere at 27° C. for 48 h, and then moved to a growth chamber at 24° C. for 5 days, after which time visual disease ratings were made. Results for Tests A-F are given in Table A. In the Table, a rating of 100 indicates 100% disease control and a rating of 0 indicates no disease control (relative to the controls). A dash (-) indicates no test results.

Septoria nodorum = test: Test C: preventive spray on wheat seedlings, Septoria nodorum (Septoria glume blotch), visual disease rating; conditions: Parastagonospora nodorum, topical, 264 h, 100 = 100% disease control, 0 = no disease control relative to controls
Description: as §1, with “on wheat” for “on tomato”, “of Septoria nodorum” for “of Alternaria solani”, “of Septoria glume blotch)” for “of tomato early blight)”, “at 20°” for “at 27°”, “at 20°” for “at 24°”, “for 9” for “for 5”

[1] = tested on: Puccinia recondita f. sp. tritici; test: Test E1: curative spray on wheat seedlings after inoculation, Puccinia recondita f. sp. tritici (wheat leaf rust), visual disease rating; conditions: sprayed after inoculation (curative), 100 = 100% disease control, 0 = no disease control relative to controls
Description: (§2) General protocol for preparing test suspensions for Tests A-H: the test compounds were first dissolved in acetone in an amount equal to 3% of the final volume and then suspended at the desired concentration (in ppm) in acetone and purified water (50/50 mix by volume) containing 250 ppm of the surfactant Trem® 014 (polyhydric alcohol esters). The resulting test suspensions were then used in Tests A-F. Spraying a 40 ppm test suspension to the point of run-off on the test plants was the equivalent of a rate of 160 g/ha. Unless otherwise indicated, the rating values indicate a 40 ppm test suspension was used. Wheat seedlings were inoculated with a spore suspension of Puccinia recondita f. sp. tritici (the causal agent of wheat leaf rust) and incubated in a saturated atmosphere at 20° C. for 24 h, and then moved to a growth chamber at 20° C. for 2 days. After 2 days, the test suspension was sprayed to the point of run-off on the wheat seedlings, and then the seedlings were moved back to the growth chamber at 20° C. for 4 days. Upon removal, visual disease ratings were made. Results for Tests A-F are given in Table A. In the Table, a rating of 100 indicates 100% disease control and a rating of 0 indicates no disease control (relative to the controls). A dash (-) indicates no test results.

[2] = tested on: Puccinia recondita f. sp. tritici; test: Test E2: preventive spray on wheat seedlings, Puccinia recondita f. sp. tritici (wheat leaf rust), visual disease rating; conditions: topical, 192 h, 100 = 100% disease control, 0 = no disease control relative to controls
Description: as §2, with “The test suspension was sprayed to the point of run-off on wheat seedlings. The following day the” for “Wheat”, “7” for “2 days. After 2”, “after which time” for “the test suspension was sprayed to the point of run-off on the wheat seedlings, and then the seedlings were moved back to the growth chamber at 20° C. for 4 days. Upon removal,”

[3] = tested on: Blumeria graminis f. sp. tritici; test: Test F: preventive spray on wheat seedlings, Blumeria graminis f. sp. tritici (wheat powdery mildew), visual disease rating; conditions: topical, 192 h, 100 = 100% disease control, 0 = no disease control relative to controls
Description: General protocol for preparing test suspensions for Tests A-H: the test compounds were first dissolved in acetone in an amount equal to 3% of the final volume and then suspended at the desired concentration (in ppm) in acetone and purified water (50/50 mix by volume) containing 250 ppm of the surfactant Trem® 014 (polyhydric alcohol esters). The resulting test suspensions were then used in Tests A-F. Spraying a 40 ppm test suspension to the point of run-off on the test plants was the equivalent of a rate of 160 g/ha. Unless otherwise indicated, the rating values indicate a 40 ppm test suspension was used. The test suspension was sprayed to the point of run-off on wheat seedlings. The following day the seedlings were inoculated with a spore dust of Blumeria graminis f. sp. tritici (also known as Erysiphe graminis f. sp. tritici, the causal agent of wheat powdery mildew) and incubated in a growth chamber at 20° C. for 8 days, after which time visual disease ratings were made. Results for Tests A-F are given in Table A. In the Table, a rating of 100 indicates 100% disease control and a rating of 0 indicates no disease control (relative to the controls). A dash (-) indicates no test results.

Cc1cc(F)c(Nc2c(-c3ccc(F)cc3Cl)c(C)nn2C)c(Br)c1 [Compound 1, N-(2-bromo-6-fluoro-4-methylphenyl)-4-(2-chloro-4-fluorophenyl)-1,3-dimethyl-1H-pyrazol-5-amine]
Test B rating (% disease control) (Alternaria solani): 99
pest or weed control at 40 µg/mL (Septoria nodorum): 90%
Test E1 rating (% disease control) [1]: 100
pest or weed control at 40 µg/mL [2]: 100%
pest or weed control at 40 µg/mL [3]: 100%

Source: patent US9464056B2, “Fungicidal 4-methylanilino pyrazoles” (E. I. DU PONT DE NEMOURS AND COMPANY, priority 2012, dated 2016)
